SMILES strings stand for the structures.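 Each compound was tested at five concentrations against cells in 96-well plates for 48 hours. TGI is the concentration that stops growth completely.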

Among the test systems are 786-0 renal; A498 renal; ACHN renal; CCRF-CEM leukemia; HCC-2998 colon; HOP-62 NSCLC; HOP-92 NSCLC; MDA-MB-435; MDA-N; NCI-H522 lung; OVCAR-3 ovarian; OVCAR-4 ovarian; SF-268 CNS; SK-MEL-5 melanoma; SK-OV-3 ovarian; U251 CNS; SN12C renal.
Holding throughout (test): NCI-60 cell line screen, 48 h

Regarding `COC(=O)[C@@H]1OC(C)(c2ccccc2)O[C@H]1C(=O)OC`, the TGI in the assay with 786-0 renal, with A498 renal, in the assay with ACHN renal, in the assay with CCRF-CEM leukemia, in the assay with HCC-2998 colon and with HOP-62 NSCLC was over 100 µM in each case. The TGI with HOP-92 NSCLC, with MDA-MB-435, in the assay with MDA-N, in the assay on NCI-H522 lung, with OVCAR-3 ovarian and with OVCAR-4 ovarian was over 100 µM each time. For the same compound, the TGI in the assay on SF-268 CNS, in the assay on SK-MEL-5 melanoma, in the assay with SK-OV-3 ovarian and in the assay with U251 CNS was over 100 µM throughout.
As for `CCOC(=O)c1ccc(Nc2nc3cc(C(F)(F)F)ccc3nc2C(=O)OCC)cc1`, the TGI in the assay on 786-0 renal was 87 µM; in the assay with A498 renal, over 100 µM; in the assay on ACHN renal it was over 100 µM; in the assay on CCRF-CEM leukemia, over 100 µM; in the assay with HCC-2998 colon, 69.5 µM; in the assay with HOP-62 NSCLC it was 65.2 µM. For the same compound, the TGI in the assay with HOP-92 NSCLC, in the assay on MDA-MB-435, in the assay on MDA-N, in the assay on NCI-H522 lung, in the assay on OVCAR-3 ovarian and in the assay with SF-268 CNS was over 100 µM in each case. In addition, the TGI in the assay on SK-MEL-5 melanoma is 89.3 µM; in the assay with SK-OV-3 ovarian, over 100 µM; in the assay on SN12C renal, over 100 µM; in the assay on U251 CNS, 40.7 µM.
For the compound `O=C(Nc1ccc(Cl)cc1)NS(=O)(=O)c1c(-c2ccccc2)oc2ccccc2c1=O`, the TGI in the assay on 786-0 renal, in the assay on A498 renal, in the assay with ACHN renal, in the assay with CCRF-CEM leukemia, in the assay with HCC-2998 colon and with HOP-62 NSCLC was over 100 µM each time. In addition, the TGI in the assay on HOP-92 NSCLC is over 100 µM; in the assay on MDA-MB-435 it was over 100 µM; with MDA-N it was over 100 µM; in the assay with NCI-H522 lung, 31.2 µM; in the assay on OVCAR-4 ovarian, over 100 µM; in the assay on SF-268 CNS, over 100 µM. Besides, the TGI with SK-MEL-5 melanoma, with SK-OV-3 ovarian, in the assay on SN12C renal and with U251 CNS was over 100 µM in each case.
In the case of `CC1c2cc(c3c(c2O)CN([C@@H](C)C2CCCCC2)CO3)C(C)c2cc(c3c(c2O)CN([C@@H](C)C2CCCCC2)CO3)C(C)c2cc(c3c(c2O)CN([C@@H](C)C2CCCCC2)CO3)C(C)c2cc1c1c(c2O)CN([C@@H](C)C2CCCCC2)CO1` (some centres not stated), the TGI amounted to 2.4 µM with 786-0 renal; 3.57 µM in the assay with A498 renal; 2.78 µM in the assay with ACHN renal; 1.45 µM in the assay on CCRF-CEM leukemia; 2.82 µM with HCC-2998 colon; 2.85 µM with HOP-92 NSCLC. For the same compound, the TGI with MDA-MB-435 came to 3.62 µM; with MDA-N, 3.04 µM; in the assay with NCI-H522 lung, 1.58 µM; in the assay with OVCAR-3 ovarian it was 2.93 µM; in the assay with OVCAR-4 ovarian, 3.03 µM; in the assay with SF-268 CNS it was 2.85 µM. Further, the TGI in the assay on SK-MEL-5 melanoma was determined as 3.46 µM; with SK-OV-3 ovarian, 2.72 µM; in the assay on SN12C renal it was 2.29 µM; in the assay on U251 CNS it was 2.83 µM.
Regarding `CC1C(O)Oc2cc3c(cc2C1c1ccccc1O)OCO3` (configuration not stated), the TGI in the assay on 786-0 renal is over 100 µM; in the assay with A498 renal it was 82.7 µM; in the assay with ACHN renal it was over 100 µM; in the assay with CCRF-CEM leukemia, 51.2 µM; in the assay with HCC-2998 colon, over 100 µM; in the assay with HOP-62 NSCLC, over 100 µM. Besides, the TGI is 47.2 µM in the assay with HOP-92 NSCLC; over 100 µM with MDA-MB-435; over 100 µM in the assay with MDA-N; 42.9 µM with NCI-H522 lung; 99 µM in the assay with OVCAR-3 ovarian; over 100 µM with SF-268 CNS. The TGI with SK-MEL-5 melanoma was 98.5 µM; in the assay on SK-OV-3 ovarian it was over 100 µM; in the assay on SN12C renal, over 100 µM; in the assay on U251 CNS, over 100 µM.
As to `COc1ccc(C(SCC(N)C(=O)O)(c2ccc(OC)cc2)c2ccc(OC)cc2)cc1` (configuration not stated), the TGI in the assay on 786-0 renal is 20.3 µM; in the assay on A498 renal, 22.7 µM; in the assay on ACHN renal, 18.6 µM; in the assay on CCRF-CEM leukemia it was over 31.6 µM; in the assay with HCC-2998 colon, 17.4 µM; in the assay on HOP-62 NSCLC, 17.8 µM. Further, the TGI in the assay on HOP-92 NSCLC came out at 31.6 µM; with MDA-MB-435, 10.8 µM; in the assay on MDA-N it was 12.7 µM; in the assay on NCI-H522 lung, 39.8 µM; in the assay on OVCAR-3 ovarian it was 17.1 µM; in the assay on OVCAR-4 ovarian it was 27.7 µM. The TGI in the assay with SF-268 CNS came to 19.9 µM; in the assay with SK-OV-3 ovarian, 72.3 µM; with SN12C renal it was 17.7 µM; with U251 CNS, 29.8 µM.
In the case of `Cc1ccc(S(=O)(=O)Nn2c(O)c(C#N)c(-c3ccc(N(C)C)cc3)c(C#N)c2=O)cc1`, the TGI in the assay with 786-0 renal, with A498 renal, in the assay on ACHN renal, in the assay with CCRF-CEM leukemia, with HCC-2998 colon and with HOP-62 NSCLC was over 50 µM throughout. For the same compound, the TGI in the assay on HOP-92 NSCLC, with MDA-MB-435, in the assay with MDA-N, with NCI-H522 lung, with OVCAR-4 ovarian and in the assay with SF-268 CNS was over 50 µM in each case. Also, the TGI in the assay on SK-MEL-5 melanoma was over 50 µM; with SK-OV-3 ovarian, 27.4 µM; with SN12C renal, over 50 µM; with U251 CNS, over 50 µM.

Source of the values: PubChem BioAssay (NCI).
